The record followed here is patent US7790697B2, “Compositions and methods for inhibiting the synthesis or expression of MMP-1” (Trustees of Dartmouth College, priority 2004, dated 2010).

For series [1], the system named is MDA-231 cells in type I collagen gel. Kind of series: In vitro collagen gel destruction assay. The class given is cell-based. The conditions noted are these: empty vector MDA-231 cells, 36 hours. Here is the method: In vitro Collagen Gel Destruction Assay. Collagen preparations were carried out on ice to prevent premature jelling. A solution of purified type I bovine collagen (Cohesion Technologies, Palo Alto, Calif.) was neutralized with a sterile 10× phosphate-buffered saline (pH 7.4), and 0.1 M NaOH. The solution of neutralized collagen (2 mg/mL) was mixed with an equivalent volume of cells suspended in serum free DMEM to yield a final concentration of 2×10^5 cells/mL in 1 mg/mL fibrillar collagen, and 1 mL of the collagen/cell mixture was added to each well of a six-well plate. After approximately 1 hour, the collagen jelled, and 1 mL of serum-free media was added on top of the gel. For some experiments, 25 μM ILOMASTAT® (CHEMICON®, Temecula, Calif.), 50 U/mL aprotinin (Sigma, St. Louis, Mo.), 1 μg/mL neutralizing MMP-1 antibody (MMP-1 ab-5; ONCOGENE™ Research Products, San Diego, Calif.), 1 μg/mL monoclonal FLAG® antibody (Sigma, St. Louis, Mo.), or 1% DMSO were added to the collagen before it jelled. After 36 hours of incubation at 37° C. the medium was removed from the top of collagen gels and weighed. The weight of media added at the start of the 37° C. incubation (1 gram) was subtracted from the total media weights to reveal the amount of media liberated by collagen gel destruction.
An in vitro collagen destruction assay was developed to determine whether the MMP-1 levels in MDA-231 cells with the empty vector were functionally capable of degrading a collagen matrix, and whether the shRNA-mediated reduction in MMP-1 was sufficient to change the invasive behavior of the cells. MDA-231 cells harboring either the empty vector or the MMP-1 shRNA were embedded in a solution of type I collagen (1 mL). The collagen was allowed to solidify at 37° C., and 1 mL of serum-free medium was layered on top of each gel. After 36 hours at 37° C., the medium was removed from each well and photographs were taken. No collagen was visible in wells containing MDA-231 cells with the empty vector. […] The medium removed from each well was weighed to quantitate the amount of medium liberated as the gel was destroyed. After 36 hours, approximately 1 mL (0.8±0.06 grams) of medium was liberated from the collagen gels containing the MDA-231 cells with the empty vector. […] Conversely, no medium (−0.01±0.03 grams) was liberated from collagen gels containing MDA-231 cells producing the MMP-1 shRNA. The slight decrease in the volume of medium recovered may be due to evaporation of the medium during the incubation period.

Another series concerns MMP-1 protein. Kind of series: Western blot of MMP-1 protein in culture medium. The class given is cell-based, human. The settings on record: empty vector MDA-231 cells in collagen gel; 50 U/mL; 24 hours. Here is the method: Western Blot Analysis. MDA-231 cells were cultured in 1 mL serum-free DMEM/F12 medium in six-well plates in the presence or absence of a collagen gel, with or without aprotinin (50 U/mL; Sigma, St. Louis, Mo.). After 24 hours, medium was harvested, proteins precipitated with cold 10% trichloroacetic acid, and resuspended in 50 μL SDS loading buffer (PROMEGA®, Madison, Wis.). Following SDS-PAGE and transfer to a PVDF membrane (IMMOBILON™-P; MILLIPORE™, Bedford, Mass.), the membrane was incubated in a 5% milk, Tris-buffered saline solution with 0.1% TWEEN™ (milk TBST) for 1 hour. The membrane was probed with a MMP-1 polyclonal antibody (CHEMICON®, Temecula, Calif.) diluted 1:5000 in milk TBST overnight at 4° C. The membrane was washed three times with TBST, and a 1:2000 dilution of goat anti-rabbit horseradish peroxidase (HRP) conjugated antibody (CELL SIGNALING TECHNOLOGY®, Beverly, Mass.) in milk TBST was added for 60 minutes. The blot was washed three times with TBST, and HRP activity was detected with the WESTERN LIGHTNING® chemiluminescence reagent according to the manufacturer's instructions (PERKINELMER®, Boston, Mass.).
The three MMPs primarily responsible for degrading type 1 collagen are MMP-1, MMP-13, and the membrane bound MT1-MMP (Stamenkovic (2003) J. Pathol. 200:448-64). […]

A further series deals with MDA-231 cells. Kind of series: Creation and subcloning of stable MDA-231 cell lines. The class given is cell-based. The conditions noted are these: PSUPER-retro plasmid, G418 selection and subcloning. The method, then:
Transfection of NIH/3T3 and MDA-231 Cells. NIH/3T3 cells were transiently transfected with LIPOFECTAMINE™ 2000 (INVITROGEN™, Carlsbad, Calif.) along with 0.5 μg peGFP, 0.5 μg pCMV-MMP-1, and 2 μg PSUPER™-MMP-1 shRNA or PSUPER™ with no insert. Transfection efficiency was monitored using eGFP signal. Total cellular RNA was harvested 48 hours after transfection and analyzed for MMP-1 mRNA by real-time RT-PCR. MDA-231 cells were stably transfected in triplicate with LIPOFECTAMINE™ 2000 (INVITROGEN™, Carlsbad, Calif.) and 2 μg of the PSUPER™.Retro.Neo.GFP plasmid containing the MMP-1 shRNA, the scrambled sequence or just the empty vector. Stable cell lines were selected by growth in the presence of 1 mg/mL G418 (STRATAGENE®, La Jolla, Calif.). Individual, stable cell lines were isolated with cloning disks according to the manufacturer's instructions (PGC Scientifics, Frederick, Md.).
Three groups of stable MDA-231 cell lines were created. One group contained only the PSUPER™-retro plasmid, a second group contained a PSUPER™-retro plasmid with the scrambled shRNA sequence, and the third contained a PSUPER™-retro plasmid with the MMP-1 shRNA oligonucleotide.

Turning to `CNC(=O)[C@H](Cc1c[nH]c2ccccc12)NC(=O)[C@@H](CC(=O)NO)CC(C)C` [ILOMASTAT®, ILOMASTAT, reference compound], the “medium liberated from collagen gels” value in series [1] (25 μM/gel inhibitor embedded) was −0.1±0.08 grams. Regarding aprotinin [reference compound], the “MMP-1 bands in medium / activation of proMMP-1 (western blot)” value with MMP-1 protein is given as “only the higher molecular weight zymogen band”. The “medium liberated from collagen gels” value in series [1] (50 U/mL collagen embedded) amounted to 0.01±0.1 grams.

As for “scrambled shRNA: Control shRNA with identical hairpin loop and linker, sequence not complementary to any human gene (SEQ ID NO:6) (AAGTGGAGGGACGTATGCA; the letters are possibly those of the target site)”, the “growth and survival of stably transfected cells” value in the series on MDA-231 cells was “did not grow well, and did not survive the subcloning procedures”.
